Test results from patent publication US20250326794A1, “ANTI-CANCER LEUCINE-RICH PEPTIDES AND USES THEREOF” (KING'S COLLEGE LONDON, priority 2019, published 2025).

Legend:
[1] = system: HMLER-shEcad (human breast cancer stem cell); experiment: cells; conditions: 72 h
In short: (§1)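 MTT viability after 72 h exposure to 0–100 μM compound (final DMSO 0.5% or 0%), 5×10^3 cells/well; HMLER lines and MCF-10A in MEGM, U2OS in DMEM with 10% FBS. A550 normalized to matching vehicle controls; IC50 interpolated from dose–response curves.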

[2] = system: HMLER (human breast cancer bulk cell); experiment: cells; conditions: 72 h
In short: as §1

[3] = system: HEK293T (human embryonic kidney cell); experiment: cells; conditions: 72 h
[4] = ANTS/DPX liposome leakage assay, 3POPC/1POPG vesicles; type: biochemical; conditions: 0.5 mM vesicles; for Peptide Concentration-induced 50% ANTS/DPX leakage at pH 4.8, 3POPC/1POPG Vesicle: pH 4.8, lipid per peptide; for Peptide Concentration-induced 50% ANTS/DPX leakage at pH 7.4, 3POPC/1POPG Vesicle: pH 7.4, lipid per peptide
Procedure: (§2) In brief, 0.5 mM POPC vesicles (grey) or POPC:POPG vesicles (ratio 3:1, black) were incubated with peptide concentrations of 0, 0.02, 0.04, 0.08, 0.16, 0.32, 0.64, 1.25, 2.5, 5, 10, and 20 μM in each A) hydrochloric acid-adjusted phosphate buffered saline (1×, pH 4.8) and B) phosphate buffered saline (1×, pH 7.4).
(§3) The lipids 1-palmitoyl-2-oleoyl-sn-glycero-3-phosphocholine (POPC), 1-palmitoyl-2-oleoyl-snglycero-3-phospho-(1′-rac-glycerol) (POPG) were purchased from Avanti Polar Lipids and dissolved in chloroform. Large unilamellar vesicles (LUVs) were produced by extrusion through 100 nm pore filter using an extruder and filters purchased from Avanti Polar Lipids.
(§4) 5 mM ANTS (8-aminonaphthalene-1,3,6-trisulfonic acid, disodium salt) and 12.5 mM DPX (p-xylene-bis-pyridinium bromide) were entrapped in 0.1 μm diameter extruded vesicles with lipids. Gel filtration chromatography using a Sephadex G-100 (GE Healthcare Life Sciences Inc) was used to remove external free ANTS/DPX from LUVs with entrapped contents. LUVs were diluted to 0.5 mM and used to measure the leakage activity by addition of aliquots of peptides. Leakage was measured after 3 h incubation. 10% Triton was used as the positive control to measure the maximum leakage of the vesicle. Fluorescence emission spectra were recorded using excitation and emission wavelength of 350 nm and 510 nm for ANTS/DPX using a BioTek Synergy H1 Hybrid Multi-Mode Reader.
(§5) Table 4 illustrates peptide concentration-induced 50% ANTS/DPX liposome leakage. 0.5 mM POPC and 3POPC/1POPG vesicles were fixed and incubated with titrated peptide concentration ([…]) each in phosphate buffered saline (1×, pH 7.4) and hydrochloric acid-adjusted phosphate buffered saline (1×, pH 4.8). The values are shown as lipid per peptide. †N-terminus is free, C-terminus: —W—NH2.

[5] = Tryptophan fluorescent binding assay, POPC vesicles; conditions: 50 μM peptide, PBS pH 7.4, lipid per peptide
Procedure: (§6) In brief, 50 μM peptides were fixed and incubated with titrated POPC vesicles (black) or 3POPC/1POPG vesicles (grey) at concentrations of 0, 12.5, 25, 50, 100, 250, 500, 1000, 2500, and 5000 μM in phosphate buffered saline (1×, pH 7.4). The lipid concentration that causes 50% peptide binding was determined using a tryptophan fluorescent binding assay and the values are shown as lipid per peptide.
as §3
(§7) Peptides (50 μM) and POPC/POPG LUVs (600 μM) were prepared in 10 mM phosphate buffer (pH 7.0). The solutions were incubated and measured after 60 minutes. Excitation was fixed at 280 nm (slit 9 nm) and emission was collected from 300 to 450 nm (slit 9 nm). The spectra were recorded using a Synergy H1 Hybrid Multi-Mode Reader (FIG. 3A) and Cytation™ 5 Cell Imaging Multi-Mode Reader (FIG. 2) from BioTek and were averaged over 3 scans.
(§8) Table 3 illustrates the lipid concentration-induced 50% peptide binding onto a liposome. 50 μM peptide was fixed and incubated with titrated lipid (POPC vesicles or 3POPC/1POPG vesicles) at concentrations of 0, 12.5, 25, 50, 100, 250, 500, 1000, 2500, and 5000 μM in phosphate buffered saline (1×, pH 7.4). The lipid concentration that causes 50% peptide binding was determined using tryptophan fluorescent binding assay and the values are shown as lipid per peptide. †N-terminus is free, C-terminus: —W—NH2.

[6] = system: U2OS (human bone osteosarcoma); conditions: 72 h
In short: as §1

[7] = Tryptophan fluorescent binding assay, 3POPC/1POPG vesicles; conditions: 50 μM peptide, PBS pH 7.4, lipid per peptide
Procedure: as §6, §3, §7, §8

[8] = ANTS/DPX liposome leakage assay, POPC vesicles; type: biochemical; conditions: 0.5 mM vesicles; for Peptide Concentration-induced 50% ANTS/DPX leakage at pH 4.8, POPC Vesicle: pH 4.8, lipid per peptide; for Peptide Concentration-induced 50% ANTS/DPX leakage at pH 7.4, POPC Vesicle: pH 7.4, lipid per peptide
Procedure: as §2, §3, §4, §5

Structure (SMILES)	IC50 [1] [µM]	IC50 [2] [µM]	IC50 [3] [µM]	Peptide Concentration-induced 50% ANTS/DPX leakage at pH 4.8, 3POPC/1POPG Vesicle [4] [L/P]	Peptide Concentration-induced 50% ANTS/DPX leakage at pH 7.4, 3POPC/1POPG Vesicle [4] [L/P]	Lipid Concentration-induced 50% Peptide Binding, POPC Vesicle [5] [L/P]	IC50 [6] [µM]	Lipid Concentration-induced 50% Peptide Binding, 3POPC/1POPG Vesicle [7] [L/P]	Peptide Concentration-induced 50% ANTS/DPX leakage at pH 4.8, POPC Vesicle [8] [L/P]	Peptide Concentration-induced 50% ANTS/DPX leakage at pH 7.4, POPC Vesicle [8] [L/P]
CC(C)C[C@H](NC(=O)CN)C(=O)N[C@@H](CC(C)C)C(=O)N[C@@H](Cc1c[nH]cn1)C(=O)N[C@@H](CC(C)C)C(=O)N[C@@H](CC(C)C)C(=O)N[C@@H](Cc1c[nH]cn1)C(=O)N[C@@H](CC(C)C)C(=O)N[C@@H](CC(C)C)C(=O)N[C@@H](CC(C)C)C(=O)N[C@@H](Cc1c[nH]cn1)C(=O)N[C@@H](C)C(=O)N[C@@H](C)C(=O)NCC(=O)N[C@@H](Cc1c[nH]c2ccccc12)C(N)=O [HHH]	9.5 ± 0.99	21.1 ± 6.93	30.6 ± 4.81	50	469	0.46	185 ± 7	0.82	173	1133
CC(C)C[C@H](NC(=O)CN)C(=O)N[C@@H](CC(C)C)C(=O)N[C@@H](CC(=O)O)C(=O)N[C@@H](CC(C)C)C(=O)N[C@@H](CC(C)C)C(=O)N[C@@H](Cc1c[nH]cn1)C(=O)N[C@@H](CC(C)C)C(=O)N[C@@H](CC(C)C)C(=O)N[C@@H](CC(C)C)C(=O)N[C@@H](Cc1c[nH]cn1)C(=O)N[C@@H](C)C(=O)N[C@@H](C)C(=O)NCC(=O)N[C@@H](Cc1c[nH]c2ccccc12)C(N)=O [DHH]	11.9 ± 0.14	21.4 ± 2.47	6.4 ± 0.42	98	692	0.67	55.9 ± 18.9	0.28	106	684
CC(C)C[C@H](NC(=O)CN)C(=O)N[C@@H](CC(C)C)C(=O)N[C@@H](CCCCN)C(=O)N[C@@H](CC(C)C)C(=O)N[C@@H](CC(C)C)C(=O)N[C@@H](CCCCN)C(=O)N[C@@H](CC(C)C)C(=O)N[C@@H](CC(C)C)C(=O)N[C@@H](CC(C)C)C(=O)N[C@@H](CCC(=O)O)C(=O)N[C@@H](C)C(=O)N[C@@H](C)C(=O)NCC(=O)N[C@@H](Cc1c[nH]c2ccccc12)C(N)=O [KKE]	1.7	2.05 ± 0.64	4.4 ± 0.14	131	346	0.48	12.8 ± 1.2	0.44	143	1133
CC(C)C[C@H](NC(=O)CN)C(=O)N[C@@H](CC(C)C)C(=O)N[C@@H](CCCCN)C(=O)N[C@@H](CC(C)C)C(=O)N[C@@H](CC(C)C)C(=O)N[C@@H](CCC(=O)O)C(=O)N[C@@H](CC(C)C)C(=O)N[C@@H](CC(C)C)C(=O)N[C@@H](CC(C)C)C(=O)N[C@@H](CCCCN)C(=O)N[C@@H](C)C(=O)N[C@@H](C)C(=O)NCC(=O)N[C@@H](Cc1c[nH]c2ccccc12)C(N)=O [KEK]	1.35 ± 0.07	1.6 ± 0.14	3.2 ± 0.14	126	438	0.47	8.15 ± 0.49	0.50	110	1173
